Experimental data as given in PMC10518255, “A first-in-class pan-lysyl oxidase inhibitor impairs stromal remodeling and enhances gemcitabine response and survival in pancreatic cancer” (Nature Cancer, 2023).
Where “and” joins values, the source holds several entries; their conditions need not be identical. Equal entries are not always repeated.

Assays:
[1] = tested on: lysyl oxidase family members in KPC CCs; assay: qRT-PCR of lysyl oxidase family members after treatment (Extended Data Figs. 2d, 3h); assay type: cell-based, mouse; set-up: qRT-PCR LOX (Ct) / qRT-PCR LOX ΔCt / qRT-PCR LOX ΔΔCt KPC CC / qRT-PCR LOXL1 ΔCt / qRT-PCR LOXL1 ΔΔCt KPC CC / qRT-PCR LOXL2 ΔCt / qRT-PCR LOXL2 ΔΔCt KPC CC / qRT-PCR LOXL3 ΔCt / qRT-PCR LOXL3 ΔΔCt KPC CC / qRT-PCR LOXL4 ΔCt / qRT-PCR LOXL4 ΔΔCt KPC CC: dose or concentration left out as unconfirmed;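 on qRT-PCR LOX ΔCt: 30 µM PXS-5505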;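 on qRT-PCR LOXL2 ΔCt: 30 µM PXS-5505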;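 on qRT-PCR LOXL3 ΔCt: 30 µM PXS-5505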;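 on qRT-PCR LOXL4 ΔCt: 30 µM PXS-5505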
Method: A total of 5 × 10^5 KPC CCs or CAFs were seeded and collected after incubation in 21% O2/5% CO2 for 72 h. RNA was isolated using the RNeasy mini kit (QIAGEN) according to the manufacturer’s instructions. Then, 1 μg of RNA was reverse transcribed using the Transcriptor First Strand cDNA Synthesis kit (Roche LifeScience) with anchored-oligo(dT)18 primers or the QuantiTect Reverse Transcription kit (QIAGEN). Real-time PCR was performed using the Roche LightCycler480 (Roche LifeScience) or QuantStudio 7 (Thermo Fisher). The following probe sets from Applied Biosystems, were used: LOX, Mm00495386; LOXL1, Mm01145738; LOXL2, Mm00804740; LOXL3, Mm01184867; LOXL4, Mm00446385; and GAPDH, Mm99999915. Primers and Roche Universal Probe Library probes used for RT–qPCR are described in Supplementary Table 4. Relative mRNA expression levels for each transcript of interest were normalized to GAPDH or ACTB (as indicated) and quantified using the comparative double ΔCt method (unless stated otherwise) for each biological replicate.
Extended Data Fig. 2 Characterization of cells derived from the KPC autochthonous model. a. Immunofluorescence staining of KPC CCs and KPC CAFs for the pancreatic epithelial cell marker CDH1 (green), DAPI (blue) and for the CAF marker α-SMA (yellow), DAPI (blue). Representative images from n = 3 biological independent samples. Scale bar = 30 μm. b. RNAseq reads for CAF and epithelial cell makers in KPC CAFs n = 3 biological independent samples. […] Data is presented as mean values ± SEM. […] Data presented as mean values +/− SD. […] Source data
Data presented as mean values +/− SD. f. […] Data presented as mean values +/− SD. […] Data presented as mean values +/− SD. […] Data presented as mean values +/− SD. Ordinary one-way ANOVA for multiple comparison test performed. Source data

[2] = tested on: Lysyl oxidase family activity in aorta; assay: Lysyl oxidase family activity in aorta of KPC tumor bearing mice at end point, fluorometric activity assay; assay type: in vivo, mouse; conditions: for Lysyl oxidase family activity measured in the aorta of KPC tumour bearing mice at endpoint (signal over noise): Extended Data 5A, fluorometric activity assay, noise measured with 300 µM ßAPN, individual animals
Method: KPC mice were treated from the time at which palpable tumors were detected (typically 10 to 12 weeks of age) and continued until the study end point. Mice were treated daily with PXS-5505 (20 mg kg^−1 i.p.) or vehicle (0.9% saline) and twice weekly with gemcitabine (100 mg kg^−1 i.p.) or vehicle (0.9% saline).
Extended Data Fig. 5 PXS-5505 in combination with gemcitabine in vivo. a. […] Signal is defined as the enzyme activity in the aorta, while noise is measured in the presence of a high concentration (300 µM) BAPN to abolish any lysyl oxidase family activity. […] Data presented as mean values +/− SD b. […] Data presented as mean values +/− SD. c. FITC-dextran (molecular weight: 10 kDa) signal quantification from KPC tumor end point from each treatment group (vehicle n = 3 biologically independent animals, PXS-5505 n = 5 biologically independent animals, Gem n = 5 biologically independent animals, PXS-5505 + Gem n = 5 biologically independent animals). 4 ROIs taken per mouse. P-values determined by Welchs t-test. Data presented as mean values +/− SD. Scale bars = 100 μm d. Quantification of red birefringent (mature) collagen fibers from human PDXs at end point after 3 cycles of treatment, treated as indicated. […] Data presented as mean values +/− SD. Scale bars = 100 μm e. Quantification of bulk modulus (stiffness) by unconfined compression testing of end point human PDX tumors from each treatment group (vehicle n = 5 biologically independent animals, Gem n = 5 biologically independent animals, PXS-5505 n = 5 biologically independent animals, PXS-5505 + Gem n = 5 biologically independent animals) [individual tumors shown]). […] FITC-dextran (molecular weight 10 kDa) signal quantification from human PDXs from each treatment group (vehicle n = 4 biologically independent animals, PXS-5505 n = 5 biologically independent animals, Gem n = 5 biologically independent animals, PXS-5505 + Gem n = 5 biologically independent animals). […] P values determined by Welchs t-test. g. […] Quantification of green birefringent (nascent) collagen fibers from human PDXs at end point, treated as indicated. […]

[3] = KPC CCs, 50 nM gemcitabine, 48 hours, per replicate
[4] = KPC CCs, 50 nM gemcitabine, 48 hours, vs GAPDH, per replicate
[5] = KPC CC, 48 hour treatment, 30 M PXS-5505, replicates
[6] = KPC CC, 48 hour treatment, PXS-5505, replicates
[7] = KPC CC, 48 hour treatment, PXS-5505, vs GAPDH, replicates

Compound: Nc1ccn([C@@H]2O[C@H](CO)[C@@H](O)C2(F)F)c(=O)n1 [Gem, gemcitabine]
- LOX ΔΔCt CC [1, 3]: 0.5966 and 0.4518 and 0.8445
- LOXL1 ΔΔCt CC [1, 3]: 2.011 and 0.7673 and 0.4707
- LOXL2 ΔΔCt CC [1, 3]: 1.535 and 1.563 and 1.2
- LOXL3 ΔΔCt CC [1, 3]: 1.643 and 1.594 and 1.375
- LOXL4 ΔΔCt CC [1, 3]: 0.7511 and 0.9095 and 0.7486
- LOX ΔCt [1, 4]: 14.7188 and 15.1199 and 14.2176
- LOXL1 ΔCt [1, 4]: 12.5081 and 13.8984 and 14.6034
- LOXL2 ΔCt [1, 4]: 4.459 and 4.433 and 4.815
- LOXL3 ΔCt [1, 4]: 5.8941 and 5.937 and 6.151
- LOXL4 ΔCt [1, 4]: 8.9744 and 8.6983 and 8.979
- expression of lysyl oxidase family members ([1]; KPC cancer cells, 50 nM gemcitabine for 48 hours): not observed
- Lysyl oxidase family activity measured in the aorta of KPC tumour bearing mice at endpoint (signal over noise) [2]: 2.059 and 2.616 and 2.089 and 2.043 and 2.04 and 2.065 and 2.364

Compound: Cl.Cl.NC/C=C(\F)CS(=O)(=O)c1cccc2cccnc12.O [PXS-5505, (Z)-3-fluoro-4-(quinolin-8-ylsulfonyl)but-2-en-1-amine dihydrochloride monohydrate]
- qRT-PCR LOXL1 (Ct) [1, 5]: 32.0868 and 30.4856 and 33.7318
- qRT-PCR LOXL2 (Ct) [1, 5]: 25.1478 and 23.1006 and 27.5044
- qRT-PCR LOXL3 (Ct) [1, 5]: 25.6118 and 24.0525 and 29.0502
- qRT-PCR LOXL4 (Ct) [1, 5]: 26.1005 and 25.1765 and 30.4751
- qRT-PCR LOX (Ct) [1, 6]: 32.5405 and 35.0722 and 35.237
- qRT-PCR LOX ΔΔCt KPC CC [1, 6]: 3.619 and 0.48 and 10.8682
- qRT-PCR LOXL1 ΔΔCt KPC CC [1, 6]: 0.8362 and 0.4014 and 1.074
- qRT-PCR LOXL2 ΔΔCt KPC CC [1, 6]: 0.7412 and 0.4847 and 0.5812
- qRT-PCR LOXL3 ΔΔCt KPC CC [1, 6]: 2.035 and 0.9488 and 0.7538
- qRT-PCR LOX ΔCt [1, 7]: 15.5819 and 18.4964 and 13.9954
- qRT-PCR LOXL1 ΔCt [1, 7]: 12.8511 and 13.9099 and 12.4902
- qRT-PCR LOXL2 ΔCt [1, 7]: 5.9121 and 6.525 and 6.263
- qRT-PCR LOXL3 ΔCt [1, 7]: 6.376 and 7.477 and 7.8086
- qRT-PCR LOXL4 ΔΔCt KPC CC ([1]; KPC CC, 48 hour treatment, replicates): 3.255 and 0.9772 and 0.6302
- qRT-PCR LOXL4 ΔCt ([1]; KPC CC, 48 hour treatment, vs GAPDH, replicates): 6.8648 and 8.601 and 9.233
- transcription of lysyl oxidase family members ([1]; KPC CCs, PXS-5505 up to 300 µM): does not significantly alter transcription
- Lysyl oxidase family activity measured in the aorta of KPC tumour bearing mice at endpoint (signal over noise) [2]: 1.144 and 1.3025 and 1.519 and 1.787 and 1.62 and 1.558
- lysyl oxidase family activity in the aorta at end point ([2]; KPC tumor bearing mice): confirming lysyl oxidase family inhibition
